Measured values published in patent US20060025483A1, “(-)-Hydroxycitric acid for protection against soft tissue and arterial calcification” (priority 2004, published 2006).

Legend:
ACE system = experiment: response of SBP to losartan challenge; format: in vivo, Spontaneously hypertensive rats (SHR); settings: at 6 hours; SHR fed 100 mg HCA per day as new KMgHCA
Source text: Many factors can positively influence blood pressure, e.g., diuretics, antioxidants, regulators of sympathetic/parasympathetic tone, compounds that improve insulin sensitivity and so forth. Therefore, losartan, an angiotensin-2 receptor blocker, was utilized to discover whether the ACE system was involved in the results discussed in Example 1.
Spontaneously hypertensive rats (SHR) were placed on a diet composed of regular rat chow (60% w/w) and table sugar (40% w/w). This diet reliably elevates blood pressure in this animal model. One group received 100 mg HCA per day in the form of a new potassium-magnesium hydroxycitrate (different from that used in Example 1) via an added 5 g HCA per kg of food mix. Systolic blood pressure and body weight were tested as in Example 1 on a weekly basis.
When losartan was injected, the SBP of both groups decreased. At 6 hours, the SBP were essentially the same. […] Thus, HCA appears to decrease angiotensin-2 in rats and to lower elevated SBP. Although insulin regulation likely is a factor in the blood pressure modulating effect of HCA, this evidence argues that inhibition of ACE is also important. […]

[1] = treated rats; cited from earlier work

SMILES: O=C(O)CC(O)(C(=O)O)C(O)C(=O)O (single isomer, unassigned; (-)) [HCA, (−)-Hydroxycitric acid]
- decrease in SBP after losartan injection (ACE system): −21.7±7.0
- plasma levels of glucose, insulin, or free fatty acids relative to controls [1]: no significant differences in plasma levels of glucose, insulin, or free fatty acids
